Laboratory results published in US20120040951A1, “HETEROARYL COMPOUNDS USEFUL AS RAF KINASE INHIBITORS” (priority 2008, published 2012).

test system: phospho-ERK in melanoma derived WM-266-4 cells; assay: Mechanistic cellular assay for Raf kinase activity (phospho-ERK, Bio-Plex); format: cell-based; conditions: Homo sapiens, treated 1-2 hr at 37° C., serum free medium, read-out: pERK EC50
Excerpt: (2) Mechanistic Cellular Assay for Raf Kinase Activity
The following method was utilized for quantifying the amount of phospho-ERK in melanoma derived WM-266-4 cells (one allele each of wild type BRaf and mutant BRaf (V600D) as an indicator of Raf kinase activity in cells treated with various kinase inhibitors.
(1) Detached adhered WM-266-4 cells from flask using 0.25% Trypsin. Resuspended cells in growth media (90% RPMI 1640, 10% FBS) and determine cell density.
(2) Seeded cells @ 10,000 cells/well in 96-well (flat bottom) tissue culture plates (36,000 cells/cm^2). Added growth media to a final volume of 200 uL/well and incubated overnight at 37° C.
(1) Prepared compound dilutions (1000× in DMSO) as follows. Starting with a stock of 5 mM compound in DMSO, diluted serially 3-fold in DMSO for a total of eight concentrations (5 mM, 1.67 mM, 0.556 mM, 0.185 mM, 0.062 mM, 0.021 mM, 0.007 mM, 0.002 mM).
(2) Prepared compound-containing media by adding 1 mL treatment media (100% RPMI 1640 without FBS) to 1 μL of compound dilution (from step 3).
(3) Removed plates (from step 2) from incubator. Aspirated media and replace with 150 μL compound-containing media. Incubate for 1-2 hr at 37° C.
(4) Removed plates (from step 5) from incubator and treated each as follows: aspirated compound-containing media and replaced with 300 μL ice-cold 1×PBS, aspirated PBS and replaced with 45 μL lysis buffer (Biorad Bio-Plex lysis buffer containing 0.4% v/v lysis buff. Factor 1, 0.2% v/v lysis buff. Factor 2, and PMSF to 2 mM final concentration), and then placed plate on ice until all plates were treated.
(5) After all plates were processed (step 6), placed plates on an orbital shaker and shook at room temperature for at least 15 min.
(6) Finally, removed plates from shaker, and transfered 40 μL/well of lysate from each to new corresponding 96-well V-bottom plates. At this point, samples may be frozen and stored @−80 C.°.
(1) Thaw (if necessary) plates (from step 8) and added 40 μL of Phospho-Protein Assay Buffer to each 40 μL lysate for a 1:1 dilution.
(2) Prepared phospho-ERK1,2 Bioplex beads by diluting 1:50 with Bioplex Wash Buffer (mixing 49 μL Wash Buffer with 1 μL of phospho-ERK1,2 Bioplex beads for each sample to be analyzed). Protected from light by wrapping tube in aluminum foil and kept at room temperature.
(3) Prepared Filter Plate by adding 100 μL/well Bioplex Wash Buffer and removed by vacuum filtration.
(4) Add 50 μL of bead solution (from step 10) to each well of a prepared Filter Plate (from step 11) and vacuum filter. Wash/filter 2× with 100 μL/well Wash Buffer.
(5) Added 50 μL of each lysate to appropriate well of the Filter Plate (from step 12). For this and all subsequent plate incubation steps, placed plate on an inverted plate cover (reduces background), and wrapped in aluminum foil (to protect from light). Shook overnight at room temperature. Included positive (control lysate) and negative (lysis buffer) controls.
(1) Prepared detection antibody (phospho-ERK1,2 Ab) by diluting 1:25 with Detection Antibody Dilution Buffer Buffer (mixing 24 μL Detection Antibody Dilution Buffer with 1 μL of phospho-ERK1,2 Ab for each sample to be analyzed).
(2) Removed plate (from step 13) from shaker and vacuum filter. Washed/filter plate 3× with 100 μL/well Wash Buffer. Added 25 μL of diluted antibody to each well. Incubated on shaker at RT for 30-45 min.
(3) Prepared streptavidin-PE by diluting 1:100 with Wash Buffer (mixing 49.5 μL Wash Buffer with 0.5 μL of 100× streptavidin-PE for each sample to be analyzed). Protected from light.
(4) Removed plate (from step 15) from shaker and vacuum filter. Washed/filter plate 3× with 100 μL/well Wash Buffer. Add 50 μL of diluted streptavidin-PE solution (from step 16) to each sample well. Incubated on shaker for 10-20 min.
(5) Removed plate from shaker and vacuum filter. Wash/filter plate 3× with 100 μL/well Bead Resuspension Buffer. After last wash resuspended beads in 125 μL Bead Resuspension Buffer. […]

| EC50 [nM] | Structure (SMILES) |
| --- | --- |
| 100 to 1000 | C[C@@H](NC(=O)c1cnn(-c2ccncc2)c1)c1ncc(C(=O)Nc2cc(C(F)(F)F)c(Cl)cn2)s1 [Example 120] |
| 100 to 1000 | CCCn1ncc(C(=O)N[C@H](C)c2ncc(C(=O)Nc3cc(C(F)(F)F)c(Cl)cn3)s2)c1C [Example 122] |
| ≤ 100 | C[C@@H](NC(=O)c1cnn(C)c1Cl)c1ncc(C(=O)Nc2cc(C(F)(F)F)c(Cl)cn2)s1 [Example 124] |
| ≤ 100 | C[C@@H](NC(=O)c1cnc2ccccn12)c1ncc(C(=O)Nc2cc(C(F)(F)F)c(Cl)cn2)s1 [Example 135] |
| 100 to 1000 | C[C@@H](NC(=O)c1cnc2ncccn12)c1ncc(C(=O)Nc2cc(C(F)(F)F)c(Cl)cn2)s1 [Example 137] |
| 100 to 1000 | C[C@@H](NC(=O)c1cncn1C)c1ncc(C(=O)Nc2cc(C(F)(F)F)c(Cl)cn2)s1 [Example 141] |
| 1000 to 10000 | C[C@@H](NC(=O)c1c[nH]cn1)c1ncc(C(=O)Nc2cc(C(F)(F)F)c(Cl)cn2)s1 [Example 142] |
| 1000 to 10000 | C[C@@H](NC(=O)c1cn(C)cn1)c1ncc(C(=O)Nc2cc(C(F)(F)F)c(Cl)cn2)s1 [Example 143] |
| 100 to 1000 | C[C@@H](NC(=O)c1cncn1-c1ccccc1)c1ncc(C(=O)Nc2cc(C(F)(F)F)c(Cl)cn2)s1 [Example 144] |
| 100 to 1000 | CCn1cncc1C(=O)N[C@H](C)c1ncc(C(=O)Nc2cc(C(F)(F)F)c(Cl)cn2)s1 [Example 145] |
| ≤ 100 | Cc1ncc(C(=O)N[C@H](C)c2ncc(C(=O)Nc3cc(C(F)(F)F)c(Cl)cn3)s2)n1C [Example 146] |
| ≤ 100 | C[C@@H](NC(=O)c1cnc(N)n1C)c1ncc(C(=O)Nc2cc(C(F)(F)F)c(Cl)cn2)s1 [Example 147] |
| ≤ 100 | CCn1c(C(=O)N[C@H](C)c2ncc(C(=O)Nc3cc(C(F)(F)F)c(Cl)cn3)s2)cnc1N [Example 149] |
| ≤ 100 | CCn1c(C(=O)N[C@H](C)c2ncc(C(=O)Nc3cc(C(F)(F)F)c(Cl)cn3)s2)cnc1C [Example 151] |
| ≤ 100 | COCCn1c(C(=O)N[C@H](C)c2ncc(C(=O)Nc3cc(C(F)(F)F)c(Cl)cn3)s2)cnc1C [Example 152] |
| 100 to 1000 | C[C@@H](NC(=O)c1cnc(N)n1C1CC1)c1ncc(C(=O)Nc2cc(C(F)(F)F)c(Cl)cn2)s1 [Example 154] |
| 1000 to 10000 | COc1ncc(C(=O)N[C@H](C)c2ncc(C(=O)Nc3cc(C(F)(F)F)c(Cl)cn3)s2)n1C [Example 157] |
| ≤ 100 | Cc1ncc(C(=O)N[C@H](C)c2ncc(C(=O)Nc3cc(C(F)(F)F)c(Cl)cn3)s2)n1C(C)C [Example 158] |
| ≤ 100 | Cc1ncc(C(=O)NC(C)c2ncc(C(=O)Nc3cc(C(F)(F)F)c(Cl)cn3)s2)n1-c1ccncc1 (centres unmarked) [Example 159] |
| 1000 to 10000 | CNc1ncc(C(=O)N[C@H](C)c2ncc(C(=O)Nc3cc(C(F)(F)F)c(Cl)cn3)s2)n1C [Example 160] |
| 100 to 1000 | Cc1ncc(C(=O)N[C@H](C)c2ncc(C(=O)Nc3cc(C(F)(F)F)c(Cl)cn3)s2)n1-c1ccccn1 [Example 161] |
| ≤ 100 | Cc1ncc(C(=O)N[C@H](C)c2ncc(C(=O)Nc3cc(C(F)(F)F)c(Cl)cn3)s2)n1-c1cccnc1 [Example 162] |
| 100 to 1000 | CCc1ncc(C(=O)N[C@H](C)c2ncc(C(=O)Nc3cc(C(F)(F)F)c(Cl)cn3)s2)n1CC [Example 163] |
| 100 to 1000 | CCn1c(C(=O)NC(C)c2ncc(C(=O)Nc3cc(C(F)(F)F)c(Cl)cn3)s2)cnc1C (centres unmarked) [Example 164] |
| 100 to 1000 | C[C@@H](NC(=O)c1cnc2sccn12)c1ncc(C(=O)Nc2cc(C(F)(F)F)c(Cl)cn2)s1 [Example 165] |
| ≤ 100 | C[C@@H](NC(=O)c1cnc2n1CCCN2)c1ncc(C(=O)Nc2cc(C(F)(F)F)c(Cl)cn2)s1 [Example 166] |
| ≤ 100 | C[C@@H](NC(=O)c1cnc2n1CCCCC2)c1ncc(C(=O)Nc2cc(C(F)(F)F)c(Cl)cn2)s1 [Example 168] |

| EC50 [nM] | Structure (SMILES) |
| --- | --- |
| ≤ 100 | C[C@@H](NC(=O)c1cnc2n1CCN2)c1ncc(C(=O)Nc2cc(C(F)(F)F)c(Cl)cn2)s1 [Example 169] |
| 100 to 1000 | C[C@@H](NC(=O)c1cnc2n1CC(=O)N2)c1ncc(C(=O)Nc2cc(C(F)(F)F)c(Cl)cn2)s1 [Example 170] |
| ≤ 100 | C[C@@H](NC(=O)c1cnc2n1CCCCN2)c1ncc(C(=O)Nc2cc(C(F)(F)F)c(Cl)cn2)s1 [Example 171] |
| 100 to 1000 | C[C@@H](NC(=O)c1cnc2n1CCN2C)c1ncc(C(=O)Nc2cc(C(F)(F)F)c(Cl)cn2)s1 [Example 172] |
| ≤ 100 | C[C@@H](NC(=O)c1cnc2n1CCC(=O)N2)c1ncc(C(=O)Nc2cc(C(F)(F)F)c(Cl)cn2)s1 [Example 173] |
| 100 to 1000 | CC(NC(=O)c1cc2c(cn1)ncn2C)c1cnc(Nc2cccc(C(F)(F)F)c2)s1 (centres unmarked) [Example 178] |
| 100 to 1000 | CC(NC(=O)c1cc2c(cn1)ncn2CCS(C)(=O)=O)c1cnc(Nc2ccc(C(F)(F)F)cc2)s1 (centres unmarked) [Example 184] |
| 100 to 1000 | C[C@@H](NC(=O)c1cc2c(cn1)ncn2CCS(C)(=O)=O)c1cnc(Nc2ccc(C(F)(F)F)cc2)cn1 [Example 186] |
| 1000 to 10000 | CC(NC(=O)c1ncc2ncn(C)c2n1)c1cnc(Nc2ccc(C(F)(F)F)cc2)cn1 (centres unmarked) [Example 191] |
| 100 to 1000 | CCn1cnc2cnc(C(=O)NC(C)c3cnc(Nc4ccc(C(F)(F)F)cc4)cn3)nc21 (centres unmarked) [Example 192] |
| 1000 to 10000 | CC(NC(=O)c1ccc2cn[nH]c2c1)c1ccc(C(=O)Nc2cccc(C(F)(F)F)c2)s1 (centres unmarked) [Example 194] |
| 1000 to 10000 | CC(NC(=O)c1ccc2[nH]ncc2c1)c1ccc(C(=O)Nc2cccc(C(F)(F)F)c2)s1 (centres unmarked) [Example 195] |
| 1000 to 10000 | CC(=N)Nc1nc2cnc(C(=O)NC(C)c3cnc(Nc4ccc(C(F)(F)F)cc4)s3)cc2n1C (centres unmarked) [Example 200] |
| 1000 to 10000 | CC(NC(=O)c1cc2cn[nH]c2cn1)c1cnc(Nc2ccc(C(F)(F)F)cc2)s1 (centres unmarked) [Example 202] |
| 1000 to 10000 | CC(NC(=O)c1cc2cnn(C)c2cn1)c1cnc(Nc2ccc(C(F)(F)F)cc2)s1 (centres unmarked) [Example 204] |
| ≤ 100 | C[C@@H](NC(=O)c1cc2cn(C)nc2cn1)c1cnc(Nc2ccc(C(F)(F)F)cc2)s1 [Example 205] |
| 100 to 1000 | CC(NC(=O)c1cc2cn(C)nc2cn1)c1cnc(Nc2ccc(C(F)(F)F)cc2)cn1 (centres unmarked) [Example 206] |
| ≤ 100 | CC(NC(=O)c1cc2scnc2cn1)c1cnc(Nc2ccc(C(F)(F)F)cc2)s1 (centres unmarked) [Example 208] |
| 100 to 1000 | C[C@@H](NC(=O)c1cnn2cccnc12)c1ncc(C(=O)Nc2cc(C(F)(F)F)c(Cl)cn2)s1 [Example 226] |
| ≤ 100 | CC(NC(=O)c1cc2c(cn1)ncn2C)c1cnc(Nc2ccc(Cl)c(C(F)(F)F)c2)cn1 (centres unmarked) [Example 232] |
| 100 to 1000 | CCN1CC(n2cnc3cnc(C(=O)NC(C)c4cnc(Nc5ccc(Cl)c(C(F)(F)F)c5)cn4)cc32)C1 (centres unmarked) [Example 235] |
| ≤ 100 | CC(NC(=O)c1cc2c(cn1)ncn2C)c1cnc(Nc2cnc(C(C)(C)C)nc2)s1 (centres unmarked) [Example 240] |
| 1000 to 10000 | C[C@H](NC(=O)c1cc2c(cn1)ncn2C)c1cnc(Nc2cnc(C(C)(C)C)nc2)s1 [Example 242] |
| 100 to 1000 | CC(NC(=O)c1cc2c(cn1)ncn2C)c1cnc(Nc2ccc(C(F)(F)F)nc2)s1 (centres unmarked) [Example 246] |
| 1000 to 10000 | CC(NC(=O)c1cc2c(cn1)ncn2C)c1cnc(Nc2ccccc2)s1 (centres unmarked) [Example 247] |
| 100 to 1000 | CC(NC(=O)c1cc2c(cn1)ncn2C)c1cnc(Nc2cccc(Cl)c2)s1 (centres unmarked) [Example 248] |
